# In ChEMBL document CHEMBL3217590, “Discovery of a new class of dithiocarbamates and rhodanine scaffolds as potent antifungal agents: synthesis, biology and molecular docking” (Medchemcomm, 2012):
# Key:
# Candida albicans [1] = test: Antifungal activity against Candida albicans after 24 to 48 hrs by broth microdilution technique; type: functional
# Candida parapsilosis = test: Antifungal activity against Candida parapsilosis ATCC22019 after 24 to 48 hrs by broth microdilution technique; type: functional; details: Lodderomyces parapsilosis
# Sporothrix schenckii = test: Antifungal activity against Sporothrix schenckii after 72 to 96 hrs by broth microdilution technique; type: functional
# [2] = tested on: Trichophyton mentagrophytes; test: Antifungal activity against Trichophyton mentagrophytes after 72 to 96 hrs by broth microdilution technique; type: functional
# Aspergillus fumigatus = test: Antifungal activity against Aspergillus fumigatus after 72 to 96 hrs by broth microdilution technique; type: functional
# Cryptococcus neoformans = test: Antifungal activity against Cryptococcus neoformans after 24 to 48 hrs by broth microdilution technique; type: functional
# Candida albicans [3] = test: Anticandidal activity against Candida albicans ATCC10231 after 24 to 48 hrs by broth microdilution technique; type: functional
# Candida albicans [4] = test: Anticandidal activity against Candida albicans ATCC14053 after 24 to 48 hrs by broth microdilution technique; type: functional
# Candida albicans [5] = test: Anticandidal activity against Candida albicans CDRI after 24 to 48 hrs by broth microdilution technique; type: functional
# Candida albicans [6] = test: Anticandidal activity against Candida albicans isolated from patient after 24 to 48 hrs by broth microdilution technique; type: functional
# Candida albicans [7] = test: Anticandidal activity against Candida albicans MTCC183 after 24 to 48 hrs by broth microdilution technique; type: functional
# Candida albicans [8] = test: Anticandidal activity against Candida albicans ATCC750 after 24 to 48 hrs by broth microdilution technique; type: functional
# Candida albicans [9] = test: Anticandidal activity against Candida albicans ATCC-MYA 2950 after 24 to 48 hrs by broth microdilution technique; type: functional
# Candida albicans [10] = test: Anticandidal activity against amphotericin-B resistant Candida albicans after 24 to 48 hrs by broth microdilution technique; type: functional
# L929 [11] = test: Cytotoxicity against mouse L929 cells assessed as morphological changes up to 3.12 ug/ml after 24 hrs by giemsa staining based phase contrast microscopy; type: cell-based; details: l929, 24 h
# L929 [12] = test: Cytotoxicity against mouse L929 cells assessed as decline in cell survival at 12.5 to 50 ug/ml after 24 hrs by spectrophotometric analysis; type: cell-based; details: l929, 24 h
# Candida albicans [13] = test: Ratio of fluconazole MIC to compound MIC against amphotericin-B resistant Candida albicans after 24 to 48 hrs by broth microdilution technique; type: functional
compound,measurement,setting,value
COc1cc(/C=C2\SC(=S)N(Cc3ccncc3)C2=O)cc(OC)c1OC,MIC,Candida albicans [1],12.5 µg/mL
same,MIC,Candida parapsilosis,50 µg/mL
same,MIC,Sporothrix schenckii,25 µg/mL
same,MIC,[2],50 µg/mL
same,MIC,Aspergillus fumigatus,> 50 µg/mL
same,MIC,Cryptococcus neoformans,50 µg/mL
S=C(NCc1ccncc1)SCc1ccccc1,MIC,Candida albicans [1],1.56 µg/mL
same,MIC,Candida parapsilosis,1.56 µg/mL
same,MIC,Sporothrix schenckii,6.25 µg/mL
same,MIC,[2],6.25 µg/mL
same,MIC,Aspergillus fumigatus,25 µg/mL
same,MIC,Cryptococcus neoformans,1.56 µg/mL
same,MIC,Candida albicans [3],1.56 µg/mL
same,MIC,Candida albicans [4],0.78 µg/mL
same,MIC,Candida albicans [5],1.56 µg/mL
same,MIC,Candida albicans [6],1.56 µg/mL
same,MIC,Candida albicans [7],0.39 µg/mL
same,MIC,Candida albicans [8],3.12 µg/mL
same,MIC,Candida albicans [9],1.56 µg/mL
same,MIC,Candida albicans [10],12.5 µg/mL
same,Activity,L929 [11],Non-toxic
same,Activity,L929 [12],Toxic
FC(F)(F)c1ccc(CSC(=S)NCc2ccncc2)cc1,MIC,Candida albicans [1],1.56 µg/mL
same,MIC,Candida parapsilosis,1.56 µg/mL
same,MIC,Sporothrix schenckii,6.25 µg/mL
same,MIC,[2],6.25 µg/mL
same,MIC,Aspergillus fumigatus,50 µg/mL
same,MIC,Cryptococcus neoformans,1.56 µg/mL
same,MIC,Candida albicans [5],1.56 µg/mL
same,MIC,Candida albicans [6],3.12 µg/mL
same,MIC,Candida albicans [7],0.78 µg/mL
same,MIC,Candida albicans [8],3.12 µg/mL
same,MIC,Candida albicans [9],1.56 µg/mL
same,MIC,Candida albicans [10],12.5 µg/mL
same,Activity,L929 [11],Non-toxic
same,Activity,L929 [12],Toxic
O=C1/C(=C/c2ccccc2)SC(=S)N1Cc1ccncc1,MIC,Candida albicans [1],25 µg/mL
same,MIC,Candida parapsilosis,50 µg/mL
same,MIC,Sporothrix schenckii,25 µg/mL
same,MIC,[2],50 µg/mL
same,MIC,Aspergillus fumigatus,> 50 µg/mL
same,MIC,Cryptococcus neoformans,50 µg/mL
O=C1/C(=C/c2ccccc2F)SC(=S)N1Cc1ccncc1,MIC,Candida albicans [1],12.5 µg/mL
same,MIC,Candida parapsilosis,50 µg/mL
same,MIC,Sporothrix schenckii,1.56 µg/mL
same,MIC,[2],6.25 µg/mL
same,MIC,Aspergillus fumigatus,> 50 µg/mL
same,MIC,Cryptococcus neoformans,3.12 µg/mL
O=C1/C(=C/c2ccc(Cl)cc2)SC(=S)N1Cc1ccncc1,MIC,Candida albicans [1],50 µg/mL
same,MIC,Candida parapsilosis,> 50 µg/mL
same,MIC,Sporothrix schenckii,> 50 µg/mL
same,MIC,[2],> 50 µg/mL
same,MIC,Aspergillus fumigatus,> 50 µg/mL
same,MIC,Cryptococcus neoformans,> 50 µg/mL
O=C1/C(=C/c2ccccc2[N+](=O)[O-])SC(=S)N1Cc1ccncc1,MIC,Candida albicans [1],3.12 µg/mL
same,MIC,Candida parapsilosis,3.12 µg/mL
same,MIC,Sporothrix schenckii,6.25 µg/mL
same,MIC,[2],6.25 µg/mL
same,MIC,Aspergillus fumigatus,> 50 µg/mL
same,MIC,Cryptococcus neoformans,6.25 µg/mL
same,MIC,Candida albicans [5],50 µg/mL
same,MIC,Candida albicans [6],25 µg/mL
same,MIC,Candida albicans [7],12.5 µg/mL
same,MIC,Candida albicans [8],50 µg/mL
same,MIC,Candida albicans [9],50 µg/mL
same,MIC,Candida albicans [10],3.12 µg/mL
same,Ratio,Candida albicans [13],2
O=C1/C(=C/c2ccc([N+](=O)[O-])cc2)SC(=S)N1Cc1ccncc1,MIC,Candida albicans [1],50 µg/mL
same,MIC,Candida parapsilosis,> 50 µg/mL
same,MIC,Sporothrix schenckii,25 µg/mL
same,MIC,[2],> 50 µg/mL
same,MIC,Aspergillus fumigatus,> 50 µg/mL
same,MIC,Cryptococcus neoformans,> 50 µg/mL
CCc1ccc(/C=C2\SC(=S)N(Cc3ccncc3)C2=O)cc1,MIC,Candida albicans [1],> 50 µg/mL
same,MIC,Candida parapsilosis,> 50 µg/mL
same,MIC,Sporothrix schenckii,> 50 µg/mL
same,MIC,[2],> 50 µg/mL
same,MIC,Aspergillus fumigatus,> 50 µg/mL
same,MIC,Cryptococcus neoformans,> 50 µg/mL
COc1ccc(/C=C2\SC(=S)N(Cc3ccncc3)C2=O)cc1,MIC,Candida albicans [1],50 µg/mL
same,MIC,Candida parapsilosis,50 µg/mL
same,MIC,Sporothrix schenckii,> 50 µg/mL
same,MIC,[2],> 50 µg/mL
same,MIC,Aspergillus fumigatus,> 50 µg/mL
same,MIC,Cryptococcus neoformans,> 50 µg/mL
COc1ccc(/C=C2\SC(=S)N(Cc3ccncc3)C2=O)cc1OC,MIC,Candida albicans [1],25 µg/mL
same,MIC,Candida parapsilosis,25 µg/mL
same,MIC,Sporothrix schenckii,> 50 µg/mL
same,MIC,[2],> 50 µg/mL
same,MIC,Aspergillus fumigatus,> 50 µg/mL
same,MIC,Cryptococcus neoformans,50 µg/mL
O=C1/C(=C/c2cccnc2)SC(=S)N1Cc1ccncc1,MIC,Candida albicans [1],1.56 µg/mL
same,MIC,Candida parapsilosis,6.25 µg/mL
same,MIC,Sporothrix schenckii,1.56 µg/mL
same,MIC,[2],6.25 µg/mL
same,MIC,Aspergillus fumigatus,25 µg/mL
same,MIC,Cryptococcus neoformans,3.12 µg/mL
same,MIC,Candida albicans [3],3.12 µg/mL
same,MIC,Candida albicans [4],0.78 µg/mL
same,MIC,Candida albicans [5],1.56 µg/mL
same,MIC,Candida albicans [6],3.12 µg/mL
same,MIC,Candida albicans [7],0.78 µg/mL
same,MIC,Candida albicans [8],3.12 µg/mL
same,MIC,Candida albicans [9],1.56 µg/mL
same,MIC,Candida albicans [10],6.25 µg/mL
same,Ratio,Candida albicans [13],1
O=C1/C(=C/c2cc3c(cc2[N+](=O)[O-])OCO3)SC(=S)N1Cc1ccncc1,MIC,Candida albicans [1],0.78 µg/mL
same,MIC,Candida parapsilosis,3.12 µg/mL
same,MIC,Sporothrix schenckii,1.56 µg/mL
same,MIC,[2],3.12 µg/mL
same,MIC,Aspergillus fumigatus,> 50 µg/mL
same,MIC,Cryptococcus neoformans,3.12 µg/mL
same,MIC,Candida albicans [3],3.12 µg/mL
same,MIC,Candida albicans [4],1.56 µg/mL
same,MIC,Candida albicans [5],3.12 µg/mL
same,MIC,Candida albicans [6],1.56 µg/mL
same,MIC,Candida albicans [7],3.12 µg/mL
same,MIC,Candida albicans [8],6.25 µg/mL
same,MIC,Candida albicans [9],1.56 µg/mL
same,MIC,Candida albicans [10],12.5 µg/mL
same,Activity,L929 [11],Non-toxic
same,Activity,L929 [12],Toxic
O=C1/C(=C/c2ccco2)SC(=S)N1Cc1ccncc1,MIC,Candida albicans [1],3.12 µg/mL
same,MIC,Candida parapsilosis,50 µg/mL
same,MIC,Sporothrix schenckii,3.12 µg/mL
same,MIC,[2],12.5 µg/mL
same,MIC,Aspergillus fumigatus,> 50 µg/mL
same,MIC,Cryptococcus neoformans,25 µg/mL
same,MIC,Candida albicans [4],1.56 µg/mL
same,MIC,Candida albicans [5],25 µg/mL
same,MIC,Candida albicans [7],3.12 µg/mL
same,MIC,Candida albicans [9],6.25 µg/mL
same,MIC,Candida albicans [10],6.25 µg/mL
same,Ratio,Candida albicans [13],1
same,Activity,L929 [11],Non-toxic
same,Activity,L929 [12],Toxic
O=C1/C(=C/c2cccc3ccccc23)SC(=S)N1Cc1ccncc1,MIC,Candida albicans [1],25 µg/mL
same,MIC,Candida parapsilosis,50 µg/mL
same,MIC,Sporothrix schenckii,12.5 µg/mL
same,MIC,[2],25 µg/mL
same,MIC,Aspergillus fumigatus,> 50 µg/mL
same,MIC,Cryptococcus neoformans,50 µg/mL
O=C1/C(=C/c2ccc(/C=C3\SC(=S)N(Cc4ccncc4)C3=O)cc2)SC(=S)N1Cc1ccncc1,MIC,Candida albicans [1],> 50 µg/mL
same,MIC,Candida parapsilosis,> 50 µg/mL
same,MIC,Sporothrix schenckii,> 50 µg/mL
same,MIC,[2],> 50 µg/mL
same,MIC,Aspergillus fumigatus,> 50 µg/mL
same,MIC,Cryptococcus neoformans,> 50 µg/mL
O=C1/C(=C/c2ccc(OCCOc3ccc(/C=C4\SC(=S)N(Cc5ccncc5)C4=O)cc3)cc2)SC(=S)N1Cc1ccncc1,MIC,Candida albicans [1],> 50 µg/mL
same,MIC,Candida parapsilosis,> 50 µg/mL
same,MIC,Sporothrix schenckii,> 50 µg/mL
same,MIC,[2],> 50 µg/mL
same,MIC,Aspergillus fumigatus,> 50 µg/mL
same,MIC,Cryptococcus neoformans,> 50 µg/mL
O=C1/C(=C/c2ccc(OCCCOc3ccc(/C=C4\SC(=S)N(Cc5ccncc5)C4=O)cc3)cc2)SC(=S)N1Cc1ccncc1,MIC,Candida albicans [1],> 50 µg/mL
same,MIC,Candida parapsilosis,> 50 µg/mL
same,MIC,Sporothrix schenckii,> 50 µg/mL
same,MIC,[2],> 50 µg/mL
same,MIC,Aspergillus fumigatus,> 50 µg/mL
same,MIC,Cryptococcus neoformans,> 50 µg/mL
O=C1/C(=C/c2ccc(OCCCCOc3ccc(/C=C4\SC(=S)N(Cc5ccncc5)C4=O)cc3)cc2)SC(=S)N1Cc1ccncc1,MIC,Candida albicans [1],> 50 µg/mL
same,MIC,Candida parapsilosis,> 50 µg/mL
same,MIC,Sporothrix schenckii,> 50 µg/mL
same,MIC,[2],> 50 µg/mL
same,MIC,Aspergillus fumigatus,> 50 µg/mL
same,MIC,Cryptococcus neoformans,> 50 µg/mL
O=C1/C(=C/c2ccc(OCCCCCOc3ccc(/C=C4\SC(=S)N(Cc5ccncc5)C4=O)cc3)cc2)SC(=S)N1Cc1ccncc1,MIC,Candida albicans [1],> 50 µg/mL
same,MIC,Candida parapsilosis,> 50 µg/mL
same,MIC,Sporothrix schenckii,> 50 µg/mL
same,MIC,[2],> 50 µg/mL
same,MIC,Aspergillus fumigatus,> 50 µg/mL
same,MIC,Cryptococcus neoformans,> 50 µg/mL
Clc1ccccc1C(c1ccccc1)(c1ccccc1)n1ccnc1 [CLOTRIMAZOLE],MIC,Candida albicans [1],0.25 µg/mL
same,MIC,Candida parapsilosis,0.5 µg/mL
same,MIC,Sporothrix schenckii,4 µg/mL
same,MIC,[2],2 µg/mL
same,MIC,Aspergillus fumigatus,2 µg/mL
same,MIC,Cryptococcus neoformans,0.25 µg/mL
OC(Cn1cncn1)(Cn1cncn1)c1ccc(F)cc1F [FLUCONAZOLE],MIC,Candida albicans [1],1 µg/mL
same,MIC,Candida parapsilosis,0.5 µg/mL
same,MIC,Sporothrix schenckii,4 µg/mL
same,MIC,[2],16 µg/mL
same,MIC,Aspergillus fumigatus,> 32 µg/mL
same,MIC,Cryptococcus neoformans,2 µg/mL
same,MIC,Candida albicans [3],1 µg/mL
same,MIC,Candida albicans [4],0.25 µg/mL
same,MIC,Candida albicans [5],0.125 µg/mL
same,MIC,Candida albicans [6],0.25 µg/mL
same,MIC,Candida albicans [7],4 µg/mL
same,MIC,Candida albicans [8],0.5 µg/mL
same,MIC,Candida albicans [9],0.062 µg/mL
same,MIC,Candida albicans [10],8 µg/mL
